# Test results: patent EP1222194B1, “7-ACYLAMINO-3-HETEROARYLTHIO-3-CEPHEM CARBOXYLIC ACID ANTIBIOTICS AND PRODRUGS THEREOF” (priority 1999, dated 2001)
# Where two headings read alike, the source gives them in different places.
# Key:
# [1] = In vitro stability of compounds in rat serum; format: in vitro ADME
# Experimental: In general, compounds from the class of 7-acylamino-3-heteroarylthio-3-cephem carboxylic acids have higher chemical reactivity and lower stability towards chemical or enzymatic decomposition than most typical cephalosporins. […] Results shown in Table 2 represent percentage loss of the initial amount of cephalosporin compound upon 60 min incubation in rat serum.
# Procedure for measuring degree of degradation of cephalosporin compounds in rat serum was as follows:
# Fresh control rat serum (heparinized and stored frozen) is preincubated at 37 °C for 15 min in a shaking water bath. pH is measured using test strips. 25 µL of a 2 mg/mL solution cephalosporin compound (in water) of is then added to each matrix to make 1000 µL. Solutions were incubated at 37 °C. 100ul of solution was taken out at time = 0, 15, 30, and 60 min post dose and added 200 µL 4% trichloroacetic acid, vortexed, and centrifuged for 10 min at 14,000 rpm in an Eppendorfmicrocentrifuge. 25 µL of each supernatant was injected onto HPLC. Experiment was repeated using 25 µL of a 0.2 mg/mL cephalosporin compound. Degradation is measured as the percentage of HPLC peak area at time t relative to peak area at time 0.
# HPLC conditions: Beckman Ultrasphere C18 column. 5u. 4.6mm x 25cm. 1 mL/min of 95% 0.1 M ammonium acetate, pH 6, 5% ACN going to 75% buffer/organic over 20min. UV monitored at 254 and 280 nm.
# [2] = test system: S. aureus PC1 (Meth^S)(lac^+); assay: Broth microdilution MIC (NCCLS); format: cell-based; conditions: Staphylococcus aureus
# Experimental: (§1) Compounds were evaluated for antimicrobial activity against a panel of bacterial strains using a broth microdilution assay performed as recommended by the NCCLS (1). The minimum inhibitory concentration (MIC) was defined as the lowest concentration of drug which prevented the growth of the bacteria. The following 16 organisms constituted the primary panel of evaluation:
# (§2) For this primary panel, the assay was performed in Mueller-Hinton Broth (MHB) with a final bacterial inoculum of 5 x 10^5 CFU/mL (from an early-log phase culture) and a final volume of 100 µL. Control drugs, including imipenem, vancomycin, Penicillin G, dicloxacillin (vs. MSSA ATCC29213 only), and new compounds were prepared at a concentration equivalent to 2-fold the desired final concentration. Dilution of compounds were prepared directly in the plates by serial 2-fold dilution using a multichannel pipette. Positive and negative growth control were included in each plate.
# (§3) The bacterial inocula were prepared as follows. For each strain one isolated colony was used to inoculate a volume of 8 mL of Mueller-Hinton broth and these cultures were incubated overnight (20h) at 35 °C in a shaking incubator. At the exception of Enterococcus strains, culture were then diluted 1:10 and allowed to grow for an additional one hour at 35 °C in a shaking incubator. The inocula were prepared by diluting the early log-phase (1h) cultures 1:1000 with fresh Mueller-Hinton broth. E. faecium and E. faecalis were prepared by diluting overnight cultures 1:333 and 1:666, respectively, with fresh Mueller-Hinton broth . A volume of 50 µL of the inocula was added to each well. […] The exact inocula were determined by applying […] of 10-fold serial dilution of the bacterial suspensions on TSA. After overnight incubation at 35 °C, colony forming units were manually counted.
# (§4) Microtiter plates were incubated during 24 h at 35 °C and were read using a microtiterplate reader (Molecular Devices) at 650 nm as well as by visual observation using a microtiterplate reading mirror.
# E. coli ATCC25992 = assay: Broth microdilution MIC (NCCLS); format: cell-based; conditions: Escherichia coli, Mueller-Hinton Broth, 24 h at 35 °C
# Experimental: as §1, §2, §3, §4
# E. faecalis VanB (Van^R) = assay: Broth microdilution MIC (NCCLS); format: cell-based; conditions: Enterococcus faecalis, Mueller-Hinton Broth, 24 h at 35 °C
# Experimental: as §1, §2, §3, §4
# S. aureus ATCC 29213 = assay: Broth microdilution MIC (NCCLS); format: cell-based; conditions: Staphylococcus aureus, ATCC29213, Mueller-Hinton Broth, 24 h at 35 °C
# Experimental: as §1, §2, §3, §4
# [3] = test system: S. aureus ATCC 33593 (Meth^R); assay: Broth microdilution MIC (NCCLS); format: cell-based; conditions: Staphylococcus aureus, ATCC33593, Mueller-Hinton Broth, 24 h at 35 °C
# Experimental: as §1, §2, §3, §4
# P. aeruginosa ATCC 27853 = assay: Broth microdilution MIC (NCCLS); format: cell-based; conditions: Pseudomonas aeruginosa, ATCC27853, Mueller-Hinton Broth, 24 h at 35 °C
# Experimental: as §1, §2, §3, §4
# [4] = test system: S. aureus 76 (Meth^R)(lac^+); assay: Broth microdilution MIC (NCCLS); format: cell-based; conditions: Staphylococcus aureus, Mueller-Hinton Broth, 24 h at 35 °C
# Experimental: as §1, §2, §3, §4
# E. faecium VanA (Van^R) = assay: Broth microdilution MIC (NCCLS); format: cell-based; conditions: Enterococcus faecium, Mueller-Hinton Broth, 24 h at 35 °C
# Experimental: as §1, §2, §3, §4
# E. faecium A491 (Amp^R) = assay: Broth microdilution MIC (NCCLS); format: cell-based; conditions: Enterococcus faecium, Mueller-Hinton Broth, 24 h at 35 °C
# Experimental: as §1, §2, §3, §4
# E. faecium ATCC 35667 = assay: Broth microdilution MIC (NCCLS); format: cell-based; conditions: Enterococcus faecium, ATCC35667, Mueller-Hinton Broth, 24 h at 35 °C
# Experimental: as §1, §2, §3, §4
# E. faecalis ATCC 29212 = assay: Broth microdilution MIC (NCCLS); format: cell-based; conditions: Enterococcus faecalis, ATCC29212, Mueller-Hinton Broth, 24 h at 35 °C
# Experimental: as §1, §2, §3, §4
# [5] = test system: S. aureus Spain #356 (Meth^R); assay: Broth microdilution MIC (NCCLS); format: cell-based; conditions: Staphylococcus aureus, Mueller-Hinton Broth, 24 h at 35 °C
# Experimental: as §1, §2, §3, §4
# [6] = test system: S. haemolyticus 05 (Meth^R); assay: Broth microdilution MIC (NCCLS); format: cell-based; conditions: Staphylococcus haemolyticus, Mueller-Hinton Broth, 24 h at 35 °C
# Experimental: as §1, §2, §3, §4
# [7] = test system: S. aureus ATCC 13709 (Smith diffuse); assay: Murine model for lethal bacteremic peritonitis (septicemia); format: in vivo, mice; conditions: for ED50: Staphylococcus aureus, ATCC13709, sc, read-out: Efficacy in murine septicemia ED50; for Efficacy in murine septicemia %survival: subcutaneously at 0 and 2 hrs post-challenge
# Experimental: 10 mice/group were injected intraperitoneally with 2.98x10^7 cfu S. aureus ATCC 13709 (Smith diffuse) and treated at 0 and 2hrs post-challenge with serial two-fold doses of new cephalosporin antibiotic, imipenem and vancomycin subcutaneously in order to determine the ED50. Male Swiss-Webster mice weighing originally 24.2 - 26.1 g were obtained from Charles Rivers Labs, Hollister, CA. Mice were housed 10 per cage and given free access to water and mouse chow.
# Staphylococcus aureus ATCC 13709 (Smith diffuse) was grown overnight at 37 °C in Brain-heart Infusion broth (BHIB). The following morning, it was subcultured to fresh BHIB and incubated for 4-5h at 37 °C. The log-phase growth cells were washed once with physiological saline and adjusted to the desired concentration by correlation of absorbency at OD 600 nm with predetermined plate counts (NCCLS, 1994). The cell suspension was mixed with an equal volume of sterile 14% hog-gastric mucin (2). Inoculum was kept in an ice bath until used (<1h).
# Mice were challenged via an injection of 0.5 mL bacterial suspension intraperitoneally. The bacterial challenge was 2.98 x 10^7 cfu/mouse.
# Imipenem (Primaxin IV; Lot 7294A), vancomycin (Vancocin; Lot 8MU60W), and new cephalosporin antibiotic were prepared by serial two-fold dilutions to concentrations of 0.078 - 0.005 mg/mL, 1.2 - 0.075 mg/mL, 0.3 - 0.02 mg/mL, 0.3 - 0.02 mg/mL and 0.3 - 0.02 mg/mL respectively in sterile water (1). All antibiotics were administered subcutaneously in 0.1 mL volumes at 0 and 2 hours post-challenge. Concentrations of all compounds are based on the weight of the bioactive ingredients.
# The 50% effective dose (ED50) was calculated by the probit method (3) utilizing a program entitled Probit (Nycomed-Salutar).
# [8] = test system: S. aureus Col8A(Meth^S)(lac^-); assay: Broth microdilution MIC (NCCLS); format: cell-based; conditions: Staphylococcus aureus, Mueller-Hinton Broth, 24 h at 35 °C
# Experimental: as §1, §2, §3, §4
# [9] = test system: S. aureus ATCC 13709 (Meth^S); assay: Broth microdilution MIC (NCCLS); format: cell-based; conditions: Staphylococcus aureus, ATCC13709, Mueller-Hinton Broth, 24 h at 35 °C
# Experimental: as §1, §2, §3, §4
# [10] = Serum binding determination by ultrafiltration and HPLC; format: in vitro ADME; conditions: % of compound bound to serum as determined by HPLC; human serum
# Experimental: The more accurate measurement of binding of selected cephalosporin compounds was performed using HPLC as described below. […] Serum is placed in a shaking water bath preheated to 37 ± 2 °C for 5 to 10 minutes to heat serum to 37 °C. Serum pH is measured and recorded, while serum is 37 °C using pH paper. Measurements are taken twice, 3 minutes apart. […] After blowing for several minutes, serum is heated to 37 °C and measurements are taken twice, 3 minutes apart using pH paper to determine the pH. Store at 4 °C. The serum is stable for 7 days. Always check the pH before each use. • 2. Before any centrifugation, the centrifuge temperature must be adjusted to 25 ± 2 °C. Preheat the centrifuge by spinning for 45 minutes at the same speed to be used in the assay (1900 g) with two tubes of water in the rotor and the temperature set to 25 °C. When the centrifuge stops immediately check the temperature of the tubes of water with a calibrated thermometer. The temperature of the tubes of water must be 25 ± 2 °C. […] Continue spinning and measuring the temperature and adjusting the setting until the temperature is 25 ± 2 °C. • 3. Prepare blank ultrafiltrate by pipetting blank pH 7.4 serum into an Amicon Centrifree Micropartition devices, centrifuge: fixed angle rotor, 1900 g, 25 °C for 20 minutes. Heat ultrafiltrate in a shaking water bath preheated to 37 °C. Measure ultrafiltrate pH and adjust to the pH of the serum (7.4 ± 0.2). • 4. Pipette 190 ul of blank ultrafiltrate into a set of labeled 1.7 mL polypropylene microfuge tubes for 3 of each level. Pipette 10 µL of the appropriate standard stock 50, 200, 1000 µg/mL to make standards 2.5, 10, and 50 µg/mL respectively. Vortex each tube well. One set of the standard samples are mixed 1:1 with 0.2 M acetic acid and injected onto the HPLC (MSTD). These samples are the membrane standards and will be used to compare to the other standards. Pipette 190 ul of ultrafiltrate and spike with 10 ul of whatever solution (e.g. water) the standards are prepared in to make the zero standard. • 5. Pipette 475 µL of blank heated pH 7.4 serum into a set of labeled 1.7 mL polypropylene microfuge tubes for 2 of each (Serum A and Serum B). Pipette 25 µL of the 1000 µg/mL standard stock into each tube, vortex each tube well to make serum standard 50 µg/mL. Remove 100 µL of serum and deproteinate with 200 µL 4% TCA while vortexing to make serum time 0 (serum 50, T0). Place serum tubes in a shaking water bath at 37 °C for 10 minutes. Pipet 100 µL of serum out and deproteinate with 200 µL 4% TCA, to make serum time 10 min (serum 50, T10). Pipet 200 ul serum standard 50 µg/mL into an ultrafiltration device, which is not treated with TCA, to determine free drug in samples (Rat Serum 50). • 6. Transfer serum and standard samples to labeled Amicon Centrifree Micropartition filters, and centrifuge: 1900 g, 25 °C for 10 minutes. The extracted serum samples (T0 and T 10) are spun down and supernatant is loaded into HPLC vials. • 7. 100 µL of ultrafiltrate sample and 100 µL of 0.2 M acetic acid were mixed together to stabilize the compound in ultrafiltrate. • 8. Transfer entire stabilized ultrafiltrate solution to a labeled autoinjector HPLC vial cap with Teflon septa, and inject on HPLC.
# Peak height or area is used in a weighted linear regression.
# High levels of binding to human serum proteins limits the concentration of compound available for antibacterial activity in the body.
SMILES,MIC (E. coli ATCC25992) [µg/mL],MIC (E. faecalis VanB (Van^R)) [µg/mL],MIC (S. aureus ATCC 29213) [µg/mL],MIC [3] [µg/mL],MIC (P. aeruginosa ATCC 27853) [µg/mL],MIC [4] [µg/mL],MIC (E. faecium VanA (Van^R)) [µg/mL],MIC (E. faecium A491 (Amp^R)) [µg/mL],MIC (E. faecium ATCC 35667) [µg/mL],MIC (E. faecalis ATCC 29212) [µg/mL],MIC [5] [µg/mL],MIC [6] [µg/mL],also measured
"NCCSCc1ccncc1SC1=C(C(=O)O)N2C(=O)[C@@H](NC(=O)/C(=N\O)c3nsc(N)n3)[C@H]2SC1 [Cmpd 4, (7R)-7-[(Z)-2-(5-amino-1,2,4-thiadiazol-3-yl)-2-(hydroxyimino)acetamido]-3-[4-(2-aminoethylthiomethyl)pyrid-3-ylthio]-3-cephem-4-carboxylic acid]",4,2,0.5,8,> 32,8,8,> 32,8,2,16,16,"stability in rat serum (statement in words) ([1]; compared with other 7-acylamino-3-heteroarylthio-3-cephem carboxylic acids): improved stability; MIC ([2]; S. aureus PC1 (Meth^S)(lac^+), Mueller-Hinton Broth, 24 h at 35 °C, read-out: MIC): 0.5 µg/mL"
"C[C@@H](O)[C@H]1C(=O)N2C(C(=O)O)=C(SCCN=CN)C[C@H]12 [Imipenem, reference compound]",≤ 0.25,0.5,≤ 0.008,32,1,32,4,> 128,4,≤ 0.25,32,64,"degraded at 1 h ([1]; % loss after 60 min exposure to rat serum as determined by HPLC, 37 °C): 20%; ED50 ([7]; mice, S. aureus ATCC 13709 ip, subcutaneous treatment at 0 and 2 hrs post-challenge, probit method, no unit given for ED50 (doses in mg/kg)): 0.07 mg/kg; MIC [8]: 0.015 µg/mL; MIC ([2]; 24 h): 0.015 µg/mL; MIC [9]: ≤ 0.008 µg/mL"
"CN[C@H](CC(C)C)C(=O)N[C@H]1C(=O)N[C@@H](CC(N)=O)C(=O)N[C@H]2C(=O)N[C@H]3C(=O)N[C@H](C(=O)N[C@H](C(=O)O)c4cc(O)cc(O)c4-c4cc3ccc4O)[C@H](O)c3ccc(c(Cl)c3)Oc3cc2cc(c3O[C@@H]2O[C@H](CO)[C@@H](O)[C@H](O)[C@H]2O[C@H]2C[C@](C)(N)[C@H](O)[C@H](C)O2)Oc2ccc(cc2Cl)[C@H]1O [Van, Vancomycin]",–,–,–,–,–,–,–,–,–,–,–,–,Efficacy in murine septicemia %survival ([7]; Dose 5 mg/kg): 5/100%; Efficacy in murine septicemia %survival ([7]; Dose 10 mg/kg): 10/100%; ED50 [7]: 2.41 mg/kg; fraction unbound [10]: 0.45
